Measurements from ChEMBL document CHEMBL1127995, “Synthesis and structure-activity relationships of pyrrolidine-modified analogs of the potent cholinergic channel activator, ABT 418” (Bioorg Med Chem Lett, 1994).

Test system: not listed separately
Test: In vitro half life was determined
Type: ADME

First: Cc1cc([C@@H]2CC[C@@H](C)N2C)on1
Second: Cc1cc([C@@H]2CC[C@H](C)N2C)on1
The half-life of the first is 1.9-fold lower: 26 min for the first, 48.3 min for the second.

For `Cc1cc([C@@H]2CCCN2C)on1` [ABT-418], the half-life was 47.3 min.

Target: Neuronal acetylcholine receptor; alpha4/beta2 (Rattus norvegicus, UniProt P09483+P12390)
Sequence (P09483 whole entry): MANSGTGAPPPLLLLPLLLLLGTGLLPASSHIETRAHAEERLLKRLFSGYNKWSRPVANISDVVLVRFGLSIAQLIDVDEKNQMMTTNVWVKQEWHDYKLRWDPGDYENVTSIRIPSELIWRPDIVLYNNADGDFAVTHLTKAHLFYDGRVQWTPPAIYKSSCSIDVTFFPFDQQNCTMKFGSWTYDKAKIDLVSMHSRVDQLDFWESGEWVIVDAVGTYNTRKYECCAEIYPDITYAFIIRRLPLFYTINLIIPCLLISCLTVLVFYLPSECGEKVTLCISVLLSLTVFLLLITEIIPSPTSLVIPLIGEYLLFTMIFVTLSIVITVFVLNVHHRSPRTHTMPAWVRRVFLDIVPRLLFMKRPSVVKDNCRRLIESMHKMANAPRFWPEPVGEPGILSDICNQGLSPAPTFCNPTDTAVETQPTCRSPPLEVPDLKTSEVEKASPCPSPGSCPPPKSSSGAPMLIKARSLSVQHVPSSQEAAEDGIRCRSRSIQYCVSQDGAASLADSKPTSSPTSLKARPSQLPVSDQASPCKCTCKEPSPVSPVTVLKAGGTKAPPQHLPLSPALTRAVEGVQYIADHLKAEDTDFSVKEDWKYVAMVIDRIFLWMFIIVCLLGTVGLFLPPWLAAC
Sequence (P12390 whole entry): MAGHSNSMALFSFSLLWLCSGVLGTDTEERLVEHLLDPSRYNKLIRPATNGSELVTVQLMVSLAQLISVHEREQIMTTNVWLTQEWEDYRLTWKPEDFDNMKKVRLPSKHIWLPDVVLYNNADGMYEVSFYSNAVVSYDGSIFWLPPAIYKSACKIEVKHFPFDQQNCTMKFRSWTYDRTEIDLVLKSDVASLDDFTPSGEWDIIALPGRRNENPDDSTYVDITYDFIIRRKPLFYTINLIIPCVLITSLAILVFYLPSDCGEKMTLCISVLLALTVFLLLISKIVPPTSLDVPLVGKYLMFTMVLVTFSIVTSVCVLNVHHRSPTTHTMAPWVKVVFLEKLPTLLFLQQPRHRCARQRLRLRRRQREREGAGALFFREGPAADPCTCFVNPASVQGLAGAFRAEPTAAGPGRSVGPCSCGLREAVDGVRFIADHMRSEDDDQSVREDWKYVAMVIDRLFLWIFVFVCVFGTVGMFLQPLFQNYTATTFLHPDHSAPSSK
Test: Binding affinity for Nicotinic acetylcholine receptor alpha4-beta2 by displacement of [3H](-)-cytisine from whole rat brain membranes
Type: cell membranes, Membrane

Going from `Cc1cc([C@@H]2CC[C@H](c3ccccc3)N2C)on1` to `Cc1cc([C@@H]2CC[C@@H](c3ccccc3)N2C)on1`, the Ki falls from over 10 µM to 8 µM. The second binds more tightly here.

`Cc1cc([C@@H]2[C@@H](CO)CCN2C)on1` and `Cc1cc([C@@H]2C(C)CCN2C)on1` (single isomer, unassigned) cannot be ordered by Ki: over 10 µM for the first, over 10 µM for the second.

Going from `COC(=O)CC1CC[C@@H](c2cc(C)no2)N1C` (some centres undefined) to `CCCC[C@@H]1CC[C@@H](c2cc(C)no2)N1C`, the Ki falls from 3.5 µM to 1.02 µM (3.4-fold).

First: Cc1cc([C@@H]2CC[C@@H](C)N2C)on1
Second: Cc1cc([C@@H]2CC[C@H](C)N2C)on1
The Ki of the first is 70-fold lower: 0.071 µM for the first, 5 µM for the second.

Compared with `CCCC[C@H]1CC[C@@H](c2cc(C)no2)N1C`, `Cc1cc([C@@H]2CCCN2C)on1` [ABT-418] is 1200-fold lower in Ki: 3.67 µM for the first, 0.003 µM for the second. The second binds more tightly here.

With `Cc1cc([C@@H]2C(COC(=S)Oc3ccccc3)CCN2C)on1` (single isomer, unassigned) the Ki was 0.84 µM.
